Reference: patent publication US8318723B2, “Pyrazine compounds, their use and methods of preparation” (Boehringer Ingelheim International GmbH, priority 2006, dated 2012)

Columns and labels:
PIM-2 [1] = target: T1, PIM-2 (Homo sapiens, UniProt Q9P1W9); assay: PIM-2 assay, single-concentration screen (luciferase-luciferin ATP depletion); type: biochemical; conditions: percent of control at 3 μg/mL final assay concentration, 1 μM ATP, 5 μM peptide substrate, 60 minutes
Method: The activity of PIM-2 is measured using luciferase-luciferin based ATP detection reagent to quantify ATP depletion resulting from kinase-catalyzed phosphoryl transfer to a peptide substrate. The screen utilizes the Zymark Allegro UHTS system to dispense reagents, buffers and test compounds. To Greiner 384-well, white Lumitrac-200 plates, 20 μL/well of 20 nM PIM-2 (10 nM final assay concentration) in assay buffer (25 mM HEPES, pH 7.5, 10 mM MgCl2, 50 mM KCl, 0.2% CHAPS, 100 μM Na3VO4, 0.2% BSA and 200 μM TCEP) is delivered, followed by 10 μL/well of test compounds (3 μg/mL final assay concentration in 1% DMSO) that were previously dissolved in DMSO and diluted in assay buffer. A 10 μL volume of a solution containing 4 μM ATP (1 μM final assay concentration) and 20 μM peptide substrate (Biotin-[…], 5 μM final assay concentration) diluted in assay buffer is added to each well and the contents of the wells are mixed. […] The assay plates are read on an Analyst (Molecular Devices) in luminescence mode following additional 15 minutes of incubation at room temperature. Luminescence signals are converted to percent of control (POC) values using the formula: POC=(BCTRL−Signal)÷(BCTRL−PCTRL), where Signal is the test well signal, BCTRL is the average of background control well signals on the plate and PCTRL is the average of positive control well signals on the plate.

PIM-2 [2] = target: T1, PIM-2; assay: PIM-2 assay, IC50 determination (luciferase-luciferin ATP depletion, 10-point dose response); type: biochemical; conditions: 10 nM PIM-2, 1 μM ATP, 50 μM peptide substrate, 15 minutes at room temperature

T1 sequence (Q9P1W9 whole entry): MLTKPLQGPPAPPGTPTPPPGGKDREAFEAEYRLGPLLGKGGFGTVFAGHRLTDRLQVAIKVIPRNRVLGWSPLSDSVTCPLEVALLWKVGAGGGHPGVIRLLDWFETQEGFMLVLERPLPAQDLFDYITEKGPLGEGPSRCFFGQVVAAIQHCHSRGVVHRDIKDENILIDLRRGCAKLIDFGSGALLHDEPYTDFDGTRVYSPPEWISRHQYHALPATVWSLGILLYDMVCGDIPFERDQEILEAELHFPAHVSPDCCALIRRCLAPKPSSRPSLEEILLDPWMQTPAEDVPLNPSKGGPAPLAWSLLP

Row | Compound | POC @ 3 μg/mL (PIM-2 [1]) | IC50 (PIM-2 [2])
1 | CN1CCCN(c2cncc(-c3cccc(/C=C/C(=O)NCCO)c3)n2)CC1 [compound 45, (E)-N-(2-Hydroxy-ethyl)-3-{3-[6-(4-methyl-perhydro-1,4-diazepin-1-yl)-pyrazin-2-yl]-phenyl}-acrylamide] | 63 POC @ 3 μg/mL | 
2 | CN1CCCN(c2cccc(-c3cccc(/C=C/C(=O)O)c3)n2)CC1 [compound 36, (E)-3-{3-[6-(4-Methyl-[1,4]diazepan-1-yl)-pyridin-2-yl]-phenyl}-acrylic acid] |  | 46 nM
3 | CN1CCCN(c2cncc(-c3cccc(/C=C/c4nnn[nH]4)c3)n2)CC1 [compound 43, 1-Methyl-4-(6-{3-[(E)-2-(1H-tetrazol-5-yl)-vinyl]-phenyl}-pyrazin-2-yl)-[1,4]diazepane] |  | 89 nM
4 | CNCCN(C)c1cncc(-c2cccc(/C=C/C(=O)O)c2)n1 [compound 13, (E)-3-(3-{6-[Methyl-(2-methylamino-ethyl)-amino]-pyrazin-2-yl}-phenyl)-acrylic acid] |  | 240 nM
5 | COCCNc1cncc(-c2cccc(/C=C/C(=O)O)c2)n1 [compound 20, (E)-3-{3-[6-(2-Methoxy-ethylamino)-pyrazin-2-yl]-phenyl}-acrylic acid] |  | 1200 nM

More lines, now with the values ahead:

Row | POC @ 3 μg/mL (PIM-2 [1]) | IC50 (PIM-2 [2]) | Compound
6 |  | 2100 nM | O=C(O)/C=C/c1cccc(-c2cncc(N3CCC(CO)CC3)n2)c1 [compound 33, (E)-3-{3-[6-(4-Hydroxymethyl-piperidin-1-yl)-pyrazin-2-yl]-phenyl}-acrylic acid]
7 |  | 72 nM | CN(C)C1CCN(c2cncc(-c3cccc(/C=C/C(=O)O)c3)n2)CC1 [compound 24, (E)-3-{3-[6-(4-Dimethylamino-piperidin-1-yl)-pyrazin-2-yl]-phenyl}-acrylic acid]
8 |  | 3300 nM | O=C(O)/C=C/c1cccc(-c2cncc(N3CCCCCC3)n2)c1 [compound 35, (E)-3-[3-(6-Azepan-1-yl-pyrazin-2-yl)-phenyl]-acrylic acid]
9 |  | 1050 nM | O=C(O)/C=C/c1cccc(-c2cncc(N3CCC(O)CC3)n2)c1 [compound 32, (E)-3-{3-[6-(4-Hydroxy-piperidin-1-yl)-pyrazin-2-yl]-phenyl}-acrylic acid]
10 |  | 200 nM | O=C(O)/C=C/c1cccc(-c2cncc(N3CCNCC3)n2)c1 [compound 28, (E)-3-[3-(3,4,5,6-Tetrahydro-2H-[1,2′]bipyrazinyl-6′-yl)-phenyl]-acrylic acid]
